# Data published in US6399614B1, “1-(N-phenylaminoalkyl)piperazine derivatives substituted at position 2 of the phenyl ring” (Recordati S.A. Chemical and Pharmaceutical Company, priority 1997, dated 2002).
# Read-outs that look alike come from different tables or passages of the source.
# Columns and labels:
# [1] = tested on: rhythmic bladder voiding contractions; assay: Volume-induced rhythmic bladder voiding contractions in anaesthetized rats; type: in vivo, rat; conditions: Rattus norvegicus; for ED (10 min disappearance of contractions): read-out: ED10 min
# Experimental: Female Sprague Dawley rats weighing 225-275 g (Crl: CDo BR, Charles River Italia) were used. The animals were housed with free access to food and water and were maintained on a forced 12 h alternating light-dark cycle at 22-24° C. for at least one week, except during the experiment. The activity on the rhythmic bladder voiding contractions was evaluated according to the method of Dray (J. Pharmacol. Methods, 13:157, 1985), with some modifications as in Guarneri (Pharmacol. Res., 27:173, 1993). Briefly, rats were anesthetized by subcutaneous injection of 1.25 g/kg (5 ml/kg) urethane, after which the urinary bladder was catheterized via the urethra using PE 50 polyethylene tubing filled with physiological saline. The catheter was tied in place with a ligature around the external urethral orifice and was connected with conventional pressure transducers (Statham P23 ID/P23 XL). […] The bladder was then filled via the recording catheter by incremental volumes of warm (37° C.) saline until reflex bladder voiding contractions occurred (usually 0.8-1.5 ml). For intravenous (i.v.) injection of bioactive compounds, PE 50 polyethylene tubing filled with physiological saline was inserted into the jugular vein. From the cystometrogram, the number of contractions recorded 15 min before (basal values) and after treatment, as well as the mean amplitude of these contractions (mean height of the peaks in mmHg) was evaluated.
# Since most compounds produced an effect that was relatively rapid in onset and led to a complete cessation of bladder contractions, bioactivity was conveniently estimated by measuring the duration of bladder quiescence (i.e., the duration of time during which no contractions occurred). The number of animals tested showing a reduction in the number of contractions >30% of that observed in the basal period was also recorded.
# Also computed in this manner were extrapolated doses which induced a reduction of the number of contractions of greater than 30% in 50% of treated rats (ED50, frequency) by the method of Bliss (Bliss C. I., Quart. J. Pharm. Pharmacol. 11, 192-216, 1938). After the suppressive effects of drug injection wore off, the height of the contractile peaks was compared with the height of the peaks previously recorded after the control intravenous administration of vehicle. The potency of the tested compounds (ED50 value: the extrapolated doses inducing a 30% reduction of amplitude of the contractions in 50% of treated rats) was evaluated on a quantal basis by the method of Bliss (Bliss C. I., Quart. J. Pharm. Pharmacol. 11, 192-216, 1938).
# [2] = target: T1, human 5-HT1A serotonergic receptor (Homo sapiens, UniProt P08908); assay: Radioreceptor binding, recombinant human 5-HT1A receptors ([3H]8-OH-DPAT, HeLa membranes); conditions: recombinant human receptor, [3H]8-OH-DPAT; Ki from IC50 by Cheng & Prusoff; read-out: Binding affinity for the 5-HT1A receptor, Ki
# T1 construct: expressed in transfected cells; host or cells: HeLa
# T1 sequence (P08908 1-422): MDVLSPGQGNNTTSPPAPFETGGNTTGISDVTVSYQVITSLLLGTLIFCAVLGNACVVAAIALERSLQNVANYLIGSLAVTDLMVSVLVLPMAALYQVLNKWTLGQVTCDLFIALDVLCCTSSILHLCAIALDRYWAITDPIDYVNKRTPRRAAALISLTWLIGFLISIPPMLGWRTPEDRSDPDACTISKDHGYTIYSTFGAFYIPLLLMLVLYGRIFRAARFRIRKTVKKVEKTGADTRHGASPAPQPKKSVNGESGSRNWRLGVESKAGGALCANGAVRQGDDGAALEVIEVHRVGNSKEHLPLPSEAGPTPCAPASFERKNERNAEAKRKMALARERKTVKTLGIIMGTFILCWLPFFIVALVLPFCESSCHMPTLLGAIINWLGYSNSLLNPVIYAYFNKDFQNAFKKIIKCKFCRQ
# Experimental: Genomic clone G-21 coding for the human 5-HT1A serotonergic receptor is stably transfected in a human cell line (HeLa). HeLa cells were grown as monolayers in Dulbecco's modified Eagle's medium (DMEM), supplemented with 10% fetal calf serum and gentamicin ([…]), 5% CO2 at 37° C. Cells were detached from the growth flask at 95% confluence by a cell scraper and were lysed in ice-cold 5 mM Tris and 5 mM EDTA buffer (pH 7.4). Homogenates were centrifuged at 40000×g×20 min and pellets were resuspended in a small volume of ice-cold 5 mM Tris and 5 mM EDTA buffer (pH 7.4) and immediately frozen and stored at −70° C. until use. On the day of experiment, cell membranes were resuspended in binding buffer: 50 mM Tris HCl (pH 7.4), 2.5 mM MgCl2, 10 μM pargiline (Fargin et al., Nature 335, 358-360, 1988). Membranes were incubated in a final volume of 1 ml for 30 min at 30° C. with 0.2-1 nM [3H]8-OH-DPAT, in absence or presence of competing drugs; non-specific binding was determined in the presence of 10 μM 5-HT. The incubation was stopped by addition of ice-cold Tris-HCl buffer and rapid filtration through 0.2% polyethyleneimine pretreated Whatman GF/B or Schleicher & Schuell GF52 filters.
# The inhibition of specific binding of the radioligands by the tested drugs was analyzed to estimate the IC50 value by using the non-linear curve-fitting program Allfit (De Lean et al., Am. J. Physiol. 235, E97-E102, 1978). The IC50 value was converted to an affinity constant (Ki) by the equation of Cheng & Prusoff (Cheng, Y. C.; Prusoff, W. H. Biochem. Pharmacol. 22, 3099-3108, 1973).
# urinary bladder = assay: Cystometric parameters (cystometrogram) in conscious rats; type: in vivo, rat; conditions: for BVC after treatment / MP after treatment: mean ± S.E.; for change in vivo at 0.3 mg/kg / change in vivo at 1 mg/kg / change in vivo at 0.1 mg/kg: Rattus norvegicus, iv, 0.25 h, after vs before; for change in vivo at 0.3 mg/kg: i.v. 300 μg/kg; for change in vivo at 1 mg/kg: i.v. 1000 μg/kg; for change in vivo at 0.1 mg/kg: i.v. 100 μg/kg
# Experimental: Male Sprague Dawley rats (Crl: CDo BR) weighing 250-350 g were used. The animals were housed with free access to food and water and maintained on a forced 12 h alternating light-dark cycle at 22-24° C. for at least one week, except during performance of the experiment. To quantify urodynamic parameters in conscious rats, cystometrographic studies were performed using procedures previously described (Guarneri et al., Pharmacol. Res., 24:175, 1991). […] An approximately 10 mm long midline incision was made in the shaved and cleaned abdominal wall. The urinary bladder was gently freed from adhering tissues, emptied, and then cannulated, via an incision at the dome, with a polyethylene cannula (Portex PP30), which was permanently sutured with silk thread. The cannula was exteriorized through a subcutaneous tunnel in the retroscapular area, where it was connected with a plastic adapter to avoid the risk of removal by the animal. For intravenous (i.v.) injection of test compounds, a PE 50 polyethylene tubing filled with physiological saline was inserted into the jugular vein and exteriorized in the retroscapular area. The rats were utilized exclusively one day after implantation. On the day of the experiment, the rats were placed in Bollman's cages, after a stabilization period of 20 min, and the free tip of the bladder catheter was connected through a T-shaped tube to a pressure transducer (Bentley T 800/Marb P 82) and to a peristaltic pump (Gilson minipuls 2) for a continuous infusion, at the constant rate of 0.1 ml/min, of saline solution into the urinary bladder. The intraluminal pressure signal during infusion was continuously recorded on a polygraph (Battaglia Rangoni KO 380 with ADCl/T amplifier).
# Two urodynamic parameters were evaluated: bladder volume capacity (BVC) and micturition pressure (MP). BVC (in ml) is defined as the minimum volume infused after which detrusor contraction (followed by micturition) occurs. MP (in mm Hg) is defined as the maximal intravesical pressure induced by the contraction of detrusor during micturition. Basal BVC and MP values were calculated as the means of the first two recorded cystometrograms. At this point in the assay, the infusion was interrupted and the test compounds were administered. Fifteen minutes after intravenous administration two additional cystometrograms were recorded in each animal and the mean values of the two cystometrographic parameters were calculated. The statistical significance of the differences in urodynamic parameter values was evaluated by Student's t test for paired data.
# [3] = extrapolated dose inducing 10 min of disappearance of the contractions, intravenous, anaesthetized rats
# [4] = extrapolated dose inducing a reduction of the number of contractions >30% in 50% of treated rats, intravenous, read-out: ED50 (frequency)
smiles,measurement,setting,value
"COc1ccccc1N1CCN(CCNc2ccccc2C(C)=O)CC1 [Example 11, 1-[N-(2-acetylphenyl)-2-aminoethyl]-4-(2-methoxyphenyl)piperazine]",ED (10 min disappearance of contractions),[1]; [3],0.318 mg/kg
same,ED50,[1]; [4],0.04 mg/kg
same,Ki,[2],2.92 nM
"COc1ccccc1NCCN1CCN(c2cccc3[nH]ccc23)CC1 [Example 47, 1-[N-(2-methoxyphenyl)-2-aminoethyl]-4-(4-indolyl)piperazine]",ED (10 min disappearance of contractions),[1]; [3],0.181 mg/kg
same,ED50,[1]; [4],0.02 mg/kg
same,Ki,[2],2.33 nM
"Cc1c(-c2ccccc2)oc2c(C(=O)OCCN3CCCCC3)cccc2c1=O [Flavoxate, flavoxate, reference compound]",ED (10 min disappearance of contractions),[1]; [3],> 10 mg/kg
same,BVC after treatment,urinary bladder; 15 min after i.v. 300 μg/kg,0.87 ± 0.11 mL
same,MP after treatment,urinary bladder; 15 min after i.v. 300 μg/kg,95.0 ± 10.9 mmHg
same,BVC after treatment,urinary bladder; 15 min after i.v. 1000 μg/kg,1.11 ± 0.16 mL
same,MP after treatment,urinary bladder; 15 min after i.v. 1000 μg/kg,80.1 ± 11.1 mmHg
same,change in vivo at 0.3 mg/kg,urinary bladder; read-out: BVC % of change,14.5%
same,change in vivo at 0.3 mg/kg,urinary bladder; read-out: MP % of change,6.5%
same,change in vivo at 1 mg/kg,urinary bladder; read-out: BVC % of change,26.1%
same,change in vivo at 1 mg/kg,urinary bladder; read-out: MP % of change,-11.4%
same,i.v. dose at which a significant increase in BVC was observed,"urinary bladder; conscious rats, i.v.",1.0 mg/kg
"COc1ccccc1N1CCN(CCN(C(=O)C2CCCCC2)c2ccccc2N)CC1 [Example 27, 1-[N-(2-aminophenyl)-N-cyclohexylcarbonyl-2-aminoethyl]-4-(2-methoxyphenyl) piperazine]",ED (10 min disappearance of contractions),[1]; [3],0.131 mg/kg
same,ED50,[1]; [4],0.013 mg/kg
same,Ki,[2],0.57 nM
"CCN(CC)CC#CCOC(=O)C(O)(c1ccccc1)C1CCCCC1 (stereo not shown) [Oxybutinin, oxybutynin, reference compound]",ED (10 min disappearance of contractions),[1]; [3],7.77 mg/kg
same,ED50,"[1]; extrapolated dose inducing 30% reduction of amplitude of the contractions in 50% of treated rats, intravenous, n.a. = not active, no significant reduction of the height of peaks, read-out: ED50 (amplitude)",0.24 mg/kg
same,ED50,[1]; [4],> 10 mg/kg
same,BVC after treatment,urinary bladder; 15 min after i.v. 100 μg/kg,0.89 ± 0.18 mL
same,MP after treatment,urinary bladder; 15 min after i.v. 100 μg/kg,77.4 ± 10.3 mmHg
same,BVC after treatment,urinary bladder; 15 min after i.v. 300 μg/kg,0.83 ± 0.12 mL
same,MP after treatment,urinary bladder; 15 min after i.v. 300 μg/kg,50.5 ± 6.3 mmHg
same,BVC after treatment,urinary bladder; 15 min after i.v. 1000 μg/kg,1.00 ± 0.18 mL
same,change in vivo at 0.1 mg/kg,urinary bladder; read-out: BVC % of change,8.5%
same,change in vivo at 0.1 mg/kg,urinary bladder; read-out: MP % of change,-18.7%
same,change in vivo at 0.3 mg/kg,urinary bladder; read-out: MP % of change,-38.6%
same,effect on MP (in words),"urinary bladder; conscious rats, i.v.",markedly and dose-dependently decreased MP
"COc1ccccc1N1CCN(CCNc2ccccc2C#N)CC1 [Example 10, 1-[N-(2-cyanophenyl)-2-aminoethyl]-4-(2-methoxyphenyl)piperazine]",ED (10 min disappearance of contractions),[1]; [3],0.122 mg/kg
same,ED50,[1]; [4],0.028 mg/kg
same,Ki,[2],17.2 nM
"COc1cc(NC(C)=O)ccc1N1CCN(CCN(C(=O)C2CCCCC2)c2ccccc2OC(F)(F)F)CC1 [Example 57, 1-[N-cyclohexylcarbonyl-N-(2-trifluoromethoxyphenyl)-2-aminoethyl]-4-(4-acetylamino-2-methoxyphenyl)piperazine]",ED (10 min disappearance of contractions),[1]; [3],0.254 mg/kg
same,ED50,[1]; [4],0.252 mg/kg
same,Ki,[2],0.74 nM
"COc1ccccc1N1CCN(CCN(C(=O)C2CCCCC2)c2ccccc2OCC(F)(F)F)CC1 [Example 42, 1-[N-[2-(2,2,2-trifluoroethoxy)phenyl]-N-cyclohexylcarbonyl-2-aminoethyl]-4-(2-methoxyphenyl)piperazine]",ED (10 min disappearance of contractions),[1]; [3],0.033 mg/kg
same,ED50,[1]; [4],0.018 mg/kg
same,BVC after treatment,urinary bladder; 15 min after i.v. 300 μg/kg,0.89 ± 0.15 mL
same,MP after treatment,urinary bladder; 15 min after i.v. 300 μg/kg,66.5 ± 9.9 mmHg
same,BVC after treatment,urinary bladder; 15 min after i.v. 1000 μg/kg,1.00 ± 0.16 mL
same,MP after treatment,urinary bladder; 15 min after i.v. 1000 μg/kg,70.3 ± 7.8 mmHg
same,change in vivo at 0.3 mg/kg,urinary bladder; read-out: BVC % of change,26.4%
same,change in vivo at 0.3 mg/kg,urinary bladder; read-out: MP % of change,-20%
same,change in vivo at 1 mg/kg,urinary bladder; read-out: BVC % of change,41.7%
same,change in vivo at 1 mg/kg,urinary bladder; read-out: MP % of change,-9.2%
COc1cc(N)ccc1N1CCN(CCN(C(=O)C2CCCCC2)c2ccccc2OCC(F)(F)F)CC1 [Example 66],ED (10 min disappearance of contractions),[1]; [3],0.167 mg/kg
same,ED50,[1]; [4],0.058 mg/kg
same,Ki,[2],0.76 nM
"COc1ccccc1NCCN1CCN(c2ccccc2OC)CC1 [Example 20, 1-[N-(2-methoxyphenyl)-2-aminoethyl]-4-(2-methoxyphenyl)piperazine]",ED (10 min disappearance of contractions),[1]; iv,0.097 mg/kg
same,ED50,"[1]; iv, read-out: ED50 (frequency)",0.025 mg/kg
same,Ki,[2],24.6 nM
"COc1ccccc1N1CCN(CCN(C(=O)C2CCCCC2)c2ccccc2C#N)CC1.Cl [Example 43, 1-[N-(2-cyanophenyl)-N-cyclohexylcarbonyl-2-aminoethyl]-4-(2-methoxyphenyl)piperazine Hydrochloride]",ED (10 min disappearance of contractions),[1]; [3],0.052 mg/kg
same,ED50,[1]; [4],0.004 mg/kg
